Experiments:
human pancreatic cells = experiment: Real-time quantitative RT-PCR of endocrine and progenitor marker gene expression; assay type: cell-based; conditions: additive in control media; pancreatic endocrine cultures; FIG. 7
Description: To determine the effects of survival media on endocrine lineage cells, we studied the gene expression of our expanded pancreatic cells by quantitative RT-PCR as shown for example in FIG. 6. Total cellular RNA was isolated from cells using Nucleospin RNA II kits (BD Biosciences, Inc.). Reverse transcription was performed using 5 μg of total RNA M-MLV reverse transcriptase (Invitrogen), 10 mM DTT, 0.5 mM dNTP (Sigma, St. Louis, Mo.), 25 ng/μl of Oligo(dt) 12-18 primer (Sigma), RNase inhibitor (Sigma) and 1× First-strand buffer (Invitrogen). The mixture was heated to 65° C. for 5 minutes. Reverse transcriptase was added and incubated at 37° C. for 60 minutes. Reactions were terminated and real-time quantitative PCR was performed according to the manufacturer's instructions using Light Cycler machines 1.0 and 2.0 (Roche) in the presence of […] of 5-fold diluted cDNA. Insulin, glucagon, Somatostatin, PDX-1, Neuro-D1, CK-19, amylase, HNF3-beta, and β-actin primer sequences were designed based on published human mRNA sequences. Data for mRNA was presented according to calculations using absolute quantification methods, or as a fold increase over the control. All expression levels of the different genes were normalized to β-actin. […]

caspases 3 and 7 = experiment: Apo-ONE caspase 3/7 assay on cell lysates; assay type: cell-based, human; conditions: FIG. 1
Description: In some embodiments, the presence of caspases 3 and 7 and the extent of cell death is measured using the APO-ONE™ caspase assay (see, e.g., FIG. 1) according to the manufacturers instructions (Promega Inc., Madison, Wis.).
One of the hallmarks of apoptosis is caspase activation. The downstream caspases 3 and 7 have a consensus cleavage sequence DEVD (SEQ ID NO: 1). For determination of the extent of apoptosis in our cultures, we used the Apo-ONE assay system (Promega), according to the manufacturer's instructions (FIG. 1). Cells were plated on 96 well plates, and cell lysates were prepared in a buffer that supports caspase activity (Promega, Madison, Wis.) and analyzed on a fluorescent plate reader using the Apo-ONE caspase 3/7 fluorescent assay (Promega, Madison, Wis.) at an excitation wavelength was 485 run and an emission wavelength was 530 nm.

[1] = tested on: cultured pancreatic cells
Description: At least one exogenous growth factor is added to the survival media in an amount sufficient to increase the level of activated Akt in the cultured cells. Typically, the growth factors are added in a concentration range from about 10 ng/ml to about 100 ng/ml of culture media (e.g., 10, 15, 20, 30, 40, 50, 60, 70, 80, 90, 100 ng/ml of culture media). Non-limiting exemplary growth factors suitable for use with the present invention may include members of the IGF, EGF, and PDGF families.

Compound | insulin mRNA normalized to β-actin mRNA, fold increase over control media alone (human pancreatic cells) [fold] | caspase activation in pancreatic cells (caspases 3 and 7; 1 μM inhibitor, P0 adherent pancreatic cells) | concentration dependence of caspase inhibition (caspases 3 and 7; three independent experiments) | works as exogenous growth factor with the invention [1]
CC(C)C(NC(=O)c1ccc2ccccc2n1)C(=O)NC(CC(=O)O)C(=O)COc1c(F)cccc1F (stereo not shown) [OPH-109, non-O-methylated Q-VD-OPH] | 10 | completely reversed the caspase activation | concentration dependence of caspase inhibition | 
VEGF |  |  |  | did not work

From patent publication US9745554B2, “Method of improving cell proliferation of pancreatic progenitor cells in a pancreatic cell culture” (ReNeuron, Inc., priority 2006, dated 2017)
